Data: patent publication US4251546A, “Process for killing internal helminths using certain 1,1-bis-(2-substituted-3-nitrophenyl)alkane or alkylene derivatives” (ICI Australia Limited, priority 1977, dated 1981)

What was measured:
live Fasciola hepatica = experiment: Minimum effective concentration against live Fasciola hepatica in Hedon-Fleig medium (Table 4); conditions: in vitro, assessed 24 hours after treatment, read-out: MINIMUM EFFECTIVE CONCENTRATION (minimum concentration required to kill Fasciola hepatica)
Method: The minimum effective concentration of compounds of formula I against live Fasciola hepatica was tested by the direct application of the test compound, in solution, to live Fasciola hepatica in Hedon-Fleig medium. The results are given in Table 4 where the minimum effective concentration (minimum concentration required to kill Fasciola hepatica) was assessed 24 hours after treatment with the test compound.

[1] = test system: sheep liver fluke (Fasciola hepatica); experiment: Fluke egg count in faeces and adult fluke count in liver of infected sheep after a single s/c dose (Table 3); format: in vivo; conditions: for POST MORTEM RESULT No. of adult fluke: liver
Method: Compositions suitable for use as experimental injectable solutions were prepared by formulating the compounds as solutions of their salts either in water or in a mixture of water and ethylene glycol or water and polyethylene glycol (PEG200).
Compositions prepared by the method of Example 10 were used as a single dose to test sheep infected with sheep liver fluke (Fasciola hepatica). The number of liver fluke eggs in the faeces was measured at the time of treatment and at selected intervals up to 30 days after treatment. The sheep were killed and the number of adult fluke in the liver counted. The amount and structure of the active ingredient in each composition and the results of treatment of a sheep with that composition are given in the Table 3 below. The compositions were administered by sub-cutaneous injection (s/c).

immature fluke = experiment: Effectiveness against immature fluke (Table 3 footnotes); format: in vivo, Fasciola hepatica

How did the minimal effective concentration (live Fasciola hepatica) turn out when `N#Cc1ccc(OC(c2cc(Cl)cc([N+](=O)[O-])c2O)c2cc(Cl)cc([N+](=O)[O-])c2O)cc1` [Compound 33] was run?
The minimal effective concentration was 5 µg/mL.

Which “FAECAL EGG COUNT, day 7” value ([1]; single dose 2.0 mg/kg) does the source give for `O=[N+]([O-])c1cc(Br)cc(C(=C(Cl)Cl)c2cc(Br)cc([N+](=O)[O-])c2O)c1O` [Compound 15] here?
The value was 0 Eggs/g faeces.

What about the “FAECAL EGG COUNT, day 14” value ([1]; single dose 2.0 mg/kg) of the same molecule?
The value was 0 Eggs/g faeces.

What about the “POST MORTEM RESULT No. of adult fluke” value ([1]; single dose 2.0 mg/kg) of the same molecule?
Its value is 0.

And the “FAECAL EGG COUNT, day 7” value ([1]; single dose 12.5 mg/kg)?
Its value is 0 Eggs/g faeces.

What about the “FAECAL EGG COUNT, day 14” value ([1]; single dose 12.5 mg/kg) of the same molecule?
Its value is 0 Eggs/g faeces.

And the “POST MORTEM RESULT No. of adult fluke” value ([1]; single dose 12.5 mg/kg)?
Its value is 0.

What about the “effective against immature fluke” value (immature fluke; 10 mg/kg) of the same molecule?
Its value is 91.4%.

What about the “effective against immature fluke” value (immature fluke; 15 mg/kg) of the same molecule?
Its value is 94%.

For `O=[N+]([O-])c1cc(Br)cc(C(c2cc(Br)cc([N+](=O)[O-])c2O)C(F)(F)F)c1O` [Compound 56], which “FAECAL EGG COUNT, day 7” value ([1]; single dose 6.0 mg/kg) is on record?
Its value is 10 Eggs/g faeces.

What about the “FAECAL EGG COUNT, day 14” value ([1]; single dose 6.0 mg/kg) of the same molecule?
The value was 0 Eggs/g faeces.

What about the “POST MORTEM RESULT No. of adult fluke” value ([1]; single dose 6.0 mg/kg) of the same molecule?
Its value is 0.

What about the minimal effective concentration (live Fasciola hepatica) of the same molecule?
The minimal effective concentration was 1 µg/mL.

With `O=[N+]([O-])c1ccc(SC(c2cc(Cl)cc([N+](=O)[O-])c2O)c2cc(Cl)cc([N+](=O)[O-])c2O)cc1` [Compound 52] as the molecule, how does the minimal effective concentration (live Fasciola hepatica) read?
The minimal effective concentration was 1 µg/mL.

Which minimal effective concentration (live Fasciola hepatica) does the source give for `O=[N+]([O-])c1cc(Cl)cc(C(Oc2ccccc2)c2cc(Cl)cc([N+](=O)[O-])c2O)c1O` [Compound 32] here?
Its minimal effective concentration is 5 µg/mL.

How did the minimal effective concentration (live Fasciola hepatica) turn out when `O=[N+]([O-])c1cc(Cl)cc(C(Oc2ccc(F)cc2)c2cc(Cl)cc([N+](=O)[O-])c2O)c1O` [Compound 35] was run?
The minimal effective concentration was 5 µg/mL.

`O=[N+]([O-])c1cc(Cl)cc(C(SCc2ccc(Cl)cc2)c2cc(Cl)cc([N+](=O)[O-])c2O)c1O` [Compound 49] was tested. Which minimal effective concentration (live Fasciola hepatica) did it give?
The minimal effective concentration was 1.5 µg/mL.

How did the minimal effective concentration (live Fasciola hepatica) turn out when `O=[N+]([O-])c1cc(Cl)cc(C(OCCC(c2ccccc2)c2ccccc2)c2cc(Cl)cc([N+](=O)[O-])c2O)c1O` [Compound 42] was run?
The minimal effective concentration was 1 µg/mL.

With `O=[N+]([O-])c1cccc(COC(c2cc(Cl)cc([N+](=O)[O-])c2O)c2cc(Cl)cc([N+](=O)[O-])c2O)c1` [Compound 39] as the molecule, how does the minimal effective concentration (live Fasciola hepatica) read?
The minimal effective concentration was 0.5 µg/mL.

How did the minimal effective concentration (live Fasciola hepatica) turn out when `CC(C)(C)SC(c1cc(Cl)cc([N+](=O)[O-])c1O)c1cc(Cl)cc([N+](=O)[O-])c1O` [Compound 46] was run?
The minimal effective concentration was 0.5 µg/mL.

For `COc1ccc(CSC(c2cc(Cl)cc([N+](=O)[O-])c2O)c2cc(Cl)cc([N+](=O)[O-])c2O)cc1` [Compound 48], which minimal effective concentration (live Fasciola hepatica) is on record?
Its minimal effective concentration is 1 µg/mL.

With `O=[N+]([O-])c1cc(Cl)cc(C(c2cc(Cl)cc([N+](=O)[O-])c2O)C(F)(F)C(F)(F)F)c1O` [Compound 54] as the molecule, how does the “FAECAL EGG COUNT, day 7” value ([1]; single dose 2.0 mg/kg) read?
Its value is 10 Eggs/g faeces.

What about the “FAECAL EGG COUNT, day 14” value ([1]; single dose 2.0 mg/kg) of the same molecule?
Its value is 0 Eggs/g faeces.

What about the “POST MORTEM RESULT No. of adult fluke” value ([1]; single dose 2.0 mg/kg) of the same molecule?
The value was 0.

And the “FAECAL EGG COUNT, day 7” value ([1]; single dose 6.0 mg/kg)?
The value was 0 Eggs/g faeces.

And the “FAECAL EGG COUNT, day 14” value ([1]; single dose 6.0 mg/kg)?
The value was 0 Eggs/g faeces.

What about the “POST MORTEM RESULT No. of adult fluke” value ([1]; single dose 6.0 mg/kg) of the same molecule?
The value was 0.

And the “effective against immature fluke” value (immature fluke; 15 mg/kg)?
The value was 83%.

Which “FAECAL EGG COUNT, day 7” value ([1]; single dose 0.5 mg/kg) does the source give for `O=[N+]([O-])c1cc(Cl)cc(C(=C(Cl)Cl)c2cc(Cl)cc([N+](=O)[O-])c2O)c1O` [Compound 14] here?
Its value is 0 Eggs/g faeces.

And the “FAECAL EGG COUNT, day 14” value ([1]; single dose 0.5 mg/kg)?
The value was 0 Eggs/g faeces.

What about the “POST MORTEM RESULT No. of adult fluke” value ([1]; single dose 0.5 mg/kg) of the same molecule?
The value was 0.

What about the “FAECAL EGG COUNT, day 7” value ([1]; single dose 2.0 mg/kg) of the same molecule?
Its value is 60 Eggs/g faeces.

What about the “FAECAL EGG COUNT, day 14” value ([1]; single dose 2.0 mg/kg) of the same molecule?
Its value is 0 Eggs/g faeces.

What about the “POST MORTEM RESULT No. of adult fluke” value ([1]; single dose 2.0 mg/kg) of the same molecule?
The value was 0.

What about the “FAECAL EGG COUNT, day 7” value ([1]; single dose 12.5 mg/kg) of the same molecule?
The value was 0 Eggs/g faeces.

What about the “FAECAL EGG COUNT, day 14” value ([1]; single dose 12.5 mg/kg) of the same molecule?
The value was 0 Eggs/g faeces.

And the “POST MORTEM RESULT No. of adult fluke” value ([1]; single dose 12.5 mg/kg)?
Its value is 0.

What about the “effective against immature fluke” value (immature fluke; 10 mg/kg) of the same molecule?
Its value is 90.6%.

And the “effective against immature fluke” value (immature fluke; 15 mg/kg)?
The value was 100%.

How did the minimal effective concentration (live Fasciola hepatica) turn out when `O=[N+]([O-])c1cc(Cl)cc(C(Oc2cccc(F)c2)c2cc(Cl)cc([N+](=O)[O-])c2O)c1O` [Compound 34] was run?
The minimal effective concentration was 5 µg/mL.

What does the source list for `O=[N+]([O-])c1cc(Cl)cc(C(c2cc(Cl)cc([N+](=O)[O-])c2O)C(F)(F)F)c1O` [Compound 53, 1,1-Bis(5-chloro-2-hydroxy-3-nitrophenyl)-2,2,2-trifluoroethane]?
FAECAL EGG COUNT, day 7 ([1]; single dose 3.0 mg/kg): 460 Eggs/g faeces; FAECAL EGG COUNT, day 14 ([1]; single dose 3.0 mg/kg): 0 Eggs/g faeces; POST MORTEM RESULT No. of adult fluke ([1]; single dose 3.0 mg/kg): 0; FAECAL EGG COUNT, day 7 ([1]; single dose 6.0 mg/kg): 0 Eggs/g faeces; FAECAL EGG COUNT, day 14 ([1]; single dose 6.0 mg/kg): 0 Eggs/g faeces; POST MORTEM RESULT No. of adult fluke ([1]; single dose 6.0 mg/kg): 0; effective against immature fluke (immature fluke; 15 mg/kg): 97%

With `COc1cc(Cl)ccc1COC(c1cc(Cl)cc([N+](=O)[O-])c1O)c1cc(Cl)cc([N+](=O)[O-])c1O` [Compound 43] as the molecule, how does the minimal effective concentration (live Fasciola hepatica) read?
Its minimal effective concentration is 5 µg/mL.
